From ChEMBL document CHEMBL1201862, “PubChem BioAssay data set” (2004)
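Following 48 hours of exposure in 96-well plates, responses at five concentrations were used to interpolate endpoints linearly. The concentration for 50% growth inhibition is given as GI50.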 Active and inactive are the calls of the source. No stated cut-off is given here; in the data, active = GI50 up to about 1.1 µM and inactive = higher. *1 amine or outer side, *2 acyl side, *3 side chain or, on linkers, in order; H or OH if unused. Where a SMILES comes first, the peptide text is derived from it. Bridges are numbered along the chain shown (N, C = ends). [ ]: non-standard residue; d: D form. ξ: configuration not given here. X10 = CCC(C)C(N[*:1])C(O)CC(=O)O[C@H](C(=O)C(C)C(=O)[*:2])C(C)C; NMeY = CN[C@@H](Cc1ccc(O)cc1)C(=O)O; ξNMeL = CNC(CC(C)C)C(=O)O; ξT = CC(O)C(N)C(=O)O

Experiments:
Assay in all cases: DTP human tumour cell line panel, 48 h
[1] = test system: 786-0
[2] = test system: A549
[3] = test system: HCT-116
[4] = test system: Hs-578T
[5] = test system: K562
[6] = test system: KM12
[7] = test system: LOX IMVI
[8] = test system: NCI-H460
[9] = test system: NCI-H522
[10] = test system: OVCAR-3
[11] = test system: OVCAR-8
[12] = test system: PC-3
[13] = test system: RXF 393
[14] = test system: SF-268
[15] = test system: SF-539
[16] = test system: SK-MEL-5
[17] = test system: SN12C
[18] = test system: SNB-75
[19] = test system: SR
[20] = test system: SW-620

SMILES | GI50 [1] | GI50 [2] | GI50 [3] | GI50 [4] | GI50 [5] | GI50 [6] | GI50 [7] | GI50 [8] | GI50 [9] | GI50 [10] | GI50 [11] | GI50 [12] | GI50 [13] | GI50 [14] | GI50 [15] | GI50 [16] | GI50 [17] | GI50 [18] | GI50 [19] | GI50 [20]
OC(C1CCCCCCCCCC1)C(O)C1CCCCCCCCCC1 (stereo not given) | > 100 µM (inactive) | > 100 µM (inactive) | > 100 µM (inactive) | > 100 µM (inactive) | 55.1 µM (inactive) | > 100 µM (inactive) | > 100 µM (inactive) | > 100 µM (inactive) | 61 µM (inactive) | > 100 µM (inactive) | > 100 µM (inactive) | > 100 µM (inactive) | 93.1 µM (inactive) | > 100 µM (inactive) | > 100 µM (inactive) | > 100 µM (inactive) | > 100 µM (inactive) | > 100 µM (inactive) | > 100 µM (inactive) | > 100 µM (inactive)
N#CCC1C2CC3C(C2=O)C13 (stereo not given) | > 100 µM (inactive) | > 100 µM (inactive) | > 100 µM (inactive) | > 100 µM (inactive) | > 100 µM (inactive) | > 100 µM (inactive) | > 100 µM (inactive) | > 100 µM (inactive) | > 100 µM (inactive) | > 100 µM (inactive) | > 100 µM (inactive) | > 100 µM (inactive) | > 100 µM (inactive) | > 100 µM (inactive) | > 100 µM (inactive) | > 100 µM (inactive) | > 100 µM (inactive) | > 100 µM (inactive) | > 100 µM (inactive) | > 100 µM (inactive)
CC1=NN(c2cccc(Cl)c2)C2(C1)SCC(=O)N2c1nc2ccccc2s1 (stereo not given) | 21.8 µM (inactive) | 31.2 µM (inactive) | 17.9 µM (inactive) | 41.1 µM (inactive) | 18.2 µM (inactive) | 25.5 µM (inactive) | 20.2 µM (inactive) | 21.6 µM (inactive) | 25.9 µM (inactive) | 16.2 µM (inactive) | 35.6 µM (inactive) | 23.3 µM (inactive) | 17.7 µM (inactive) | 31.2 µM (inactive) | 22.8 µM (inactive) | 17.5 µM (inactive) | 22.1 µM (inactive) | 13.2 µM (inactive) | 17.9 µM (inactive) | 32.6 µM (inactive)
Cc1cc2nc3ccccc3n2c2ccccc12 | > 10 µM (inactive) | > 10 µM (inactive) | > 10 µM (inactive) | > 10 µM (inactive) | > 10 µM (inactive) | > 10 µM (inactive) | > 10 µM (inactive) | 4.3 µM (inactive) | > 10 µM (inactive) | > 10 µM (inactive) | > 10 µM (inactive) | > 10 µM (inactive) | > 10 µM (inactive) | > 10 µM (inactive) | > 10 µM (inactive) | > 10 µM (inactive) | > 10 µM (inactive) | > 10 µM (inactive) | > 10 µM (inactive) | > 10 µM (inactive)
COc1cc(Oc2nc3c(N)cc(C(F)(F)F)cc3nc2-c2ccccc2)cc(OC)c1OC | 3.97 µM (inactive) | 5 µM (inactive) | 2.34 µM (inactive) | 3.69 µM (inactive) | 1.23 µM (inactive) | 2.17 µM (inactive) | 3.48 µM (inactive) | 4.14 µM (inactive) | 2.08 µM (inactive) | 1.3 µM (inactive) | 4.91 µM (inactive) | 1.92 µM (inactive) | 5.71 µM (inactive) | 4.66 µM (inactive) | 3.4 µM (inactive) | 2.77 µM (inactive) | 8.07 µM (inactive) | 1.23 µM (inactive) | 0.624 µM (active) | 3.07 µM (inactive)
CCC(C)C1NC(=O)C(NC(=O)C(CC(C)C)N(C)C(=O)[C@@H]2CCCN2)C(C)OC(=O)[C@H](Cc2ccc(OC)cc2)N(C)C(=O)[C@@H]2CCCN2C(=O)[C@H](CC(C)C)NC(=O)C(C)C(=O)[C@H](C(C)C)OC(=O)CC1O (stereo not given in full) (H-P[ξNMeL][ξT][X10]LP[NMeY](Me); ester 3-C) | 0.000564 µM (active) | 0.000533 µM (active) | < 0.0001 µM (active) | < 0.01 µM (active) | 0.000325 µM (active) | < 0.01 µM (active) | < 0.0001 µM (active) | 0.000249 µM (active) | 0.000366 µM (active) | 0.00136 µM (active) | 0.00221 µM (active) | 0.00106 µM (active) | < 0.01 µM (active) | 0.000267 µM (active) | 0.000322 µM (active) | < 0.0001 µM (active) | 0.000411 µM (active) | 0.000682 µM (active) | 0.000317 µM (active) | 0.000555 µM (active)
O=CN/C=C/c1cccc(O)c1 | 54 µM (inactive) | 54.5 µM (inactive) | 52.7 µM (inactive) | > 55.2 µM (inactive) | > 75.7 µM (inactive) | 62.4 µM (inactive) | 48.4 µM (inactive) | 43.1 µM (inactive) | 48.3 µM (inactive) | > 100 µM (inactive) | 54.1 µM (inactive) | 56.6 µM (inactive) | 60 µM (inactive) | > 57.5 µM (inactive) | 57.3 µM (inactive) | > 63.1 µM (inactive) | 56.2 µM (inactive) | > 69.3 µM (inactive) | > 43.7 µM (inactive) | 69.7 µM (inactive)
CC(C)=CCC[C@@H](C)C1=C(O)C(O)C(C)=C2N=C(c3ccccc3)C(=O)OC21 (stereo not given in full) | 7.8 µM (inactive) | 2.65 µM (inactive) | 4.03 µM (inactive) | 1.87 µM (inactive) | 1.24 µM (inactive) | 4.44 µM (inactive) | 4.71 µM (inactive) | 1.19 µM (inactive) | 0.624 µM (active) | 1.24 µM (inactive) | 0.933 µM (active) | 8.36 µM (inactive) | 1.35 µM (inactive) | 1.53 µM (inactive) | 4.33 µM (inactive) | 1.29 µM (inactive) | 1.43 µM (inactive) | 3.7 µM (inactive) | > 9.84 µM (inactive) | 3.16 µM (inactive)
O=C1C=CC(=C(c2ccccc2)c2ccc(O)cc2)C=C1 | 18.7 µM (inactive) | 17.4 µM (inactive) | 50.5 µM (inactive) | 16.7 µM (inactive) | 15.1 µM (inactive) | 19.4 µM (inactive) | 4.51 µM (inactive) | 17.3 µM (inactive) | 13.7 µM (inactive) | 16.2 µM (inactive) | 16.9 µM (inactive) | 22.1 µM (inactive) | 14.2 µM (inactive) | 20 µM (inactive) | 13.2 µM (inactive) | 11.5 µM (inactive) | 13.6 µM (inactive) | 16.9 µM (inactive) | 7.45 µM (inactive) | 18.1 µM (inactive)
CCNC(=S)NNC(=O)CSc1nc2ccc(I)cc2c(=O)n1Cc1ccccc1 | 29.2 µM (inactive) | 25.5 µM (inactive) | 6.5 µM (inactive) | 29.7 µM (inactive) | 10.6 µM (inactive) | 8.77 µM (inactive) | 34.9 µM (inactive) | 12.6 µM (inactive) | 13.1 µM (inactive) | 18.2 µM (inactive) | 22 µM (inactive) | 18.5 µM (inactive) | 11.8 µM (inactive) | 31.9 µM (inactive) | 45.8 µM (inactive) | 8.65 µM (inactive) | 10.2 µM (inactive) | > 85.7 µM (inactive) | 7.43 µM (inactive) | 37.8 µM (inactive)
